Assay results: patent US4071411A, “Antitumor antibiotics aclacinomycins A and B [RD-9187A]” (priority 1974, dated 1978)
Converted amounts (≈) assume the structure as drawn. “Also recorded” adds a separate entry of the source.

Tests used:
[1] = tested on: B. cereus ATCC 9634; experiment: antimicrobial spectrum, broth dilution method; assay type: cell-based; conditions: Bacillus cereus, ATCC9634; broth dilution; read-out: Minimum Inhibitory Concentration
Protocol: (§1) 1. The antimicrobial spectrum of aclacinomycins A and B was determined by the broth dilution method as follows: […]

[2] = tested on: B. megaterium; experiment: antimicrobial spectrum, broth dilution method; assay type: cell-based; conditions: Priestia megaterium; broth dilution; read-out: Minimum Inhibitory Concentration
Protocol: as §1

[3] = tested on: Bacillus subtilis ATCC 6633; experiment: antimicrobial spectrum, broth dilution method; assay type: cell-based; conditions: ATCC6633, broth dilution, read-out: Minimum Inhibitory Concentration
Protocol: as §1

[4] = tested on: Can tropicalis IAM 4924; experiment: antimicrobial spectrum, broth dilution method; assay type: cell-based; conditions: broth dilution; read-out: Minimum Inhibitory Concentration
Protocol: as §1

[5] = tested on: Can. albicans IAM 4905; experiment: antimicrobial spectrum, broth dilution method; assay type: cell-based; conditions: Candida albicans, IAM4905; broth dilution; read-out: Minimum Inhibitory Concentration
Protocol: as §1

[6] = tested on: Cory. bovis 1810; experiment: antimicrobial spectrum, broth dilution method; assay type: cell-based; conditions: Corynebacterium bovis, 1810; broth dilution; read-out: Minimum Inhibitory Concentration
Protocol: as §1

[7] = tested on: Diplo. pneumoniae Type 1; experiment: antimicrobial spectrum, broth dilution method; assay type: cell-based; conditions: Streptococcus pneumoniae, TYPE1; broth dilution; read-out: Minimum Inhibitory Concentration
Protocol: as §1

[8] = tested on: Diplo. pneumoniae Type 3; experiment: antimicrobial spectrum, broth dilution method; assay type: cell-based; conditions: Streptococcus pneumoniae, TYPE3; broth dilution; read-out: Minimum Inhibitory Concentration
Protocol: as §1

[9] = tested on: E. coli K12; experiment: antimicrobial spectrum, broth dilution method; assay type: cell-based; conditions: Escherichia coli, K12; broth dilution; read-out: Minimum Inhibitory Concentration
Protocol: as §1

[10] = tested on: Kl. pneumoniae ATCC 10031; experiment: antimicrobial spectrum, broth dilution method; assay type: cell-based; conditions: Klebsiella pneumoniae, ATCC10031; broth dilution; read-out: Minimum Inhibitory Concentration
Protocol: as §1

[11] = tested on: Mic. flavus; experiment: antimicrobial spectrum, broth dilution method; assay type: cell-based; conditions: Micrococcus flavus; broth dilution; read-out: Minimum Inhibitory Concentration
Protocol: as §1

[12] = tested on: Mycobact. smegmatis ATCC 607; experiment: antimicrobial spectrum, broth dilution method; assay type: cell-based; conditions: broth dilution; read-out: Minimum Inhibitory Concentration
Protocol: as §1

[13] = tested on: Ps. aeruginosa A20229; experiment: antimicrobial spectrum, broth dilution method; assay type: cell-based; conditions: Pseudomonas aeruginosa, A20229; broth dilution; read-out: Minimum Inhibitory Concentration
Protocol: as §1

[14] = tested on: Sar. lutea ATCC 9341; experiment: antimicrobial spectrum, broth dilution method; assay type: cell-based; conditions: Micrococcus luteus, ATCC9341; broth dilution; read-out: Minimum Inhibitory Concentration
Protocol: as §1

[15] = tested on: St. pyogenes NY 5; experiment: antimicrobial spectrum, broth dilution method; assay type: cell-based; conditions: Streptococcus pyogenes, NY5; broth dilution; read-out: Minimum Inhibitory Concentration
Protocol: as §1

[16] = tested on: Staph. aureus FDA 209P; experiment: antimicrobial spectrum, broth dilution method; assay type: cell-based; conditions: Staphylococcus aureus, FDA209P; broth dilution; read-out: Minimum Inhibitory Concentration
Protocol: as §1

[17] = tested on: Staph. aureus Smith; experiment: antimicrobial spectrum, broth dilution method; assay type: cell-based; conditions: Staphylococcus aureus; broth dilution; read-out: Minimum Inhibitory Concentration
Protocol: as §1

[18] = tested on: Strept. faecalis; experiment: antimicrobial spectrum, broth dilution method; assay type: cell-based; conditions: Enterococcus faecalis; broth dilution; read-out: Minimum Inhibitory Concentration
Protocol: as §1

[19] = tested on: Gram-positive bacteria and yeasts; experiment: antimicrobial activity (summary in words); assay type: cell-based
[20] = tested on: P388 cells or L1210 cells; experiment: survival of BDF1 mice inoculated with P388 or L1210 cells; assay type: in vivo; conditions: for T/C / 30 day survivors / Mean survival time: daily for 10 days; for 30 day survivors: control 0/8; for Mean survival time: control 10.0
Protocol: 2. […] For example, when BDF1 mice weighing 18 to 22 grams are inoculated with 1 × 10^6 cells of P388 cells or 5 × 10^5 cells of L1210 cells intraperitoneally and aclacinomycin A and B and aclacinomycin A-DNA complex are administered intraperitoneally once daily for 10 days consecutively 24 hours after the inoculation, the survival time of the mice is prolonged remarkably at the rate of over 150% in a dosage range of 0.5 to 5 mg./kg. of body weight per day compared with control mice receiving no antibiotic, as shown in the following table: […]

[21] = acute toxicity, single injection; assay type: in vivo, Mouse; conditions: mouse, in vivo, single injection
[22] = tested on: Mouse; experiment: acute toxicity, single injection; assay type: in vivo; conditions: mice
[23] = tested on: rabbits; experiment: lethal dose (LD50) on rabbits; assay type: in vivo
[24] = tested on: hamsters; experiment: acute cardiac alterations in the electrocardiograms of hamsters / cardiotoxicity; conditions: hamster, in vivo
[25] = tested on: RNA synthesis (L1210 cells); experiment: cells; assay type: cell-based, mice
[26] = tested on: Protein synthesis (L1210 cells); experiment: cells; assay type: cell-based, mice; conditions: Mus musculus, L1210, 1 h; 14C-precursor incorporation, 37° C., 60 min.; read-out: ID50, Protein synthesis
[27] = tested on: Vaccinia virus; experiment: microbe, parasite or virus in culture; assay type: cell-based
[28] = tested on: nucleic acid biosynthesis (L1210 cells); assay type: cell-based, mice; conditions: below 1 mcg./ml. in the medium, 60 min.
[29] = tested on: lymphoma 6C3HED; experiment: lymphoma 6C3HED in mice (summary in words); assay type: in vivo
[30] = tested on: leukemia L1210; experiment: leukemia L1210 in mice (summary in words); assay type: in vivo
[31] = tested on: leukemia P388; experiment: leukemia P388 in mice (summary in words); assay type: in vivo
[32] = tested on: various animal tumors; experiment: antitumor activity in animal tumors (summary in words); assay type: in vivo; conditions: experimental animal tumors
[33] = tested on: cultured mammalian tumor cells; experiment: growth of tumor cells in culture (summary in words); assay type: cell-based
[34] = solubility
[35] = basicity and lipophilicity

What does the source list for CCC1(O)CC(OC2CC(N(C)C)C(OC3CC(O)C(OC4CCC(=O)C(C)O4)C(C)O3)C(C)O2)c2c(cc3c(c2O)C(=O)c2c(O)cccc2C3=O)C1C(=O)OC (stereo not shown) [Aclacinomycin A]?
MIC [1]: < 0.2 µg/mL; MIC [2]: < 0.63 µg/mL; MIC [3]: < 0.2 µg/mL; MIC [4]: 20 µg/mL (≈ 24.6 µM); MIC [5]: 10 µg/mL (≈ 12.3 µM); MIC [6]: < 0.2 µg/mL; MIC [7]: 0.63 µg/mL (≈ 0.776 µM); MIC [8]: 0.63 µg/mL (≈ 0.776 µM); MIC [9]: > 100 µg/mL; MIC [10]: > 100 µg/mL; MIC [11]: < 0.2 µg/mL; MIC [12]: 2.5 µg/mL (≈ 3.08 µM); MIC [13]: > 100 µg/mL; MIC [14]: < 0.2 µg/mL; MIC [15]: 1.25 µg/mL (≈ 1.54 µM); MIC [16]: < 0.63 µg/mL; MIC [17]: < 0.2 µg/mL; MIC [18]: 2.5 µg/mL (≈ 3.08 µM); antimicrobial activity [19]: effective in preventing the growth; also recorded: strong antimicrobial activity; T/C ([20]; 0.5 mg./kg./day i.p.): 230%; 30 day survivors ([20]; 0.5 mg./kg./day i.p.): 2/4; Mean survival time ([20]; 0.5 mg./kg./day i.p.): 23.0 days; T/C ([20]; 1.0 mg./kg./day i.p.): 280%; 30 day survivors ([20]; 1.0 mg./kg./day i.p.): 3/4; Mean survival time ([20]; 1.0 mg./kg./day i.p.): 28.0 days; T/C ([20]; 2.0 mg./kg./day i.p.): 300%; 30 day survivors ([20]; 2.0 mg./kg./day i.p.): 4/4; Mean survival time ([20]; 2.0 mg./kg./day i.p.): 30.0 days; T/C ([20]; 4.0 mg./kg./day i.p.): 215%; 30 day survivors ([20]; 4.0 mg./kg./day i.p.): 1/4; Mean survival time ([20]; 4.0 mg./kg./day i.p.): 21.5 days; survival time prolonged, rate compared with control mice ([20]; dosage range 0.5 to 5 mg./kg. per day, i.p. daily for 10 days): over 150%; LD50 ([21]; ip, intraperitoneal): 22.6 mg/kg; LD50 ([21]; intravenous): 33.7 mg/kg; lethal dose (LD50), in words [22]: high lethal dose; lethal dose (LD50), in words [23]: high lethal dose; cardiotoxicity on hamsters [24]: extremely low cardiotoxicity; inhibition of RNA synthesis (in words) [25]: specific inhibition on RNA synthesis; IC50 ([25]; Mus musculus, L1210, 1 h, 14C-precursor incorporation, 37° C., 60 min., read-out: ID50, RNA synthesis): 0.1 µg/mL (≈ 0.123 µM); IC50 [26]: 6.3 µg/mL (≈ 7.76 µM); inhibition of growth of vaccinia virus (in words) ([27]; HeLa cells): effective in inhibiting the growth; IC50 ([27]; Orthopoxvirus vaccinia, HeLa, read-out: ID50, Vaccinia virus): < 10 µg/mL; inhibition of nucleic acid biosynthesis [28]: over 50%; inhibition of growth of lymphoma 6C3HED [29]: effective in inhibiting the growth; life prolongation, mice inoculated with lymphoma 6C3HED [29]: markedly prolong the lives; inhibition of growth of leukemia L1210 [30]: effective in inhibiting the growth; life prolongation, mice inoculated with leukemia L1210 [30]: markedly prolong the lives; inhibition of growth of leukemia P388 [31]: effective in inhibiting the growth; life prolongation, mice inoculated with leukemia P388 [31]: markedly prolong the lives; antitumor activity (in words) [32]: marked inhibitory effects; also recorded: potent antitumor activity; inhibition of growth of tumor cells in culture (in words) [33]: remarkable inhibitory effect; solubility in low polar solvents ([34]; ether, hexane, cyclohexane, petroleum ether as listed): insoluble; solubility in organic solvents ([34]; methanol, ethanol, chloroform, ethyl acetate, acetone etc.): soluble; solubility in water ([34]; water): slightly soluble; basicity [35]: weakly basic
